In ChEMBL document CHEMBL5247586, “Discovery of fusidic acid derivatives as novel STING inhibitors for treatment of sepsis” (Eur J Med Chem, 2022):
Activity calls are given as the source filed them. No cut-off for these calls is given here.

Legend:
[1] = target: T1, Stimulator of interferon genes protein (Mus musculus) (UniProt Q3TBT3); experiment: Binding affinity to STING in mouse RAW264.7 cells assessed as thermal stabilization at 40 to 61 degree C at 20 uM incubated for 8 hrs by cellular thermal shift assay; assay type: cell-based
T1 sequence (whole entry): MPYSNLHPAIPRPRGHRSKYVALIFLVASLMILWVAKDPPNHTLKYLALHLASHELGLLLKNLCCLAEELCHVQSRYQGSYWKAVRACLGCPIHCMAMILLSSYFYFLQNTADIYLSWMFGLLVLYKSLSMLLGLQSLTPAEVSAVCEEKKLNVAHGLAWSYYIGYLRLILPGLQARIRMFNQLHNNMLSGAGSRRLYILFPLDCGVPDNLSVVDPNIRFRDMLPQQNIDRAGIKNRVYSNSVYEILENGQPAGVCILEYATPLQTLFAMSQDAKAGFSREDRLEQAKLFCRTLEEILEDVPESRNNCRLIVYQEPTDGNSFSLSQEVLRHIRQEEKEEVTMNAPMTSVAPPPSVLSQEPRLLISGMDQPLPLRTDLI

[2] = target: T2, Interferon regulatory factor 3 (Mus musculus) (UniProt P70671); experiment: Inhibition of IRF3 phosphorylation in LPS-induced mouse RAW264.7 cells preincubated with compound for 2 hrs followed by LPS stimulation and measured after 6 hrs by Western blot analysis; assay type: cell-based; conditions: dose 0.5-2 µM, time 8.0 hrs
T2 sequence (whole entry): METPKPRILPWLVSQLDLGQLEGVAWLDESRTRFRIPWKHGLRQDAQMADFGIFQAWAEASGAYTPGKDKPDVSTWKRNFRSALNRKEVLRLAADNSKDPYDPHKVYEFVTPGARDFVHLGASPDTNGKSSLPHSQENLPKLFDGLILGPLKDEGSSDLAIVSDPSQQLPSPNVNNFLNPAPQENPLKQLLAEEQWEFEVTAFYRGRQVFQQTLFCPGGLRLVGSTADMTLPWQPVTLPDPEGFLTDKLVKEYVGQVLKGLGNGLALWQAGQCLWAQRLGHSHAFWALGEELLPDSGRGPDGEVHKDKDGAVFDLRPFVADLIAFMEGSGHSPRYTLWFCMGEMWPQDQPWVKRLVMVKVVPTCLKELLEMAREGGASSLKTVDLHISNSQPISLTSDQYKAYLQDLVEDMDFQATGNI

[3] = target: Transcription factor p65 (Mus musculus) (UniProt Q04207); experiment: Inhibition of p65 phosphorylation in LPS-induced mouse RAW264.7 cells preincubated with compound for 2 hrs followed by LPS stimulation and measured after 6 hrs by Western blot analysis; assay type: cell-based; conditions: dose 0.5-2 µM, time 8.0 hrs
Sequence of Transcription factor p65 (Mus musculus) (Q04207 whole entry): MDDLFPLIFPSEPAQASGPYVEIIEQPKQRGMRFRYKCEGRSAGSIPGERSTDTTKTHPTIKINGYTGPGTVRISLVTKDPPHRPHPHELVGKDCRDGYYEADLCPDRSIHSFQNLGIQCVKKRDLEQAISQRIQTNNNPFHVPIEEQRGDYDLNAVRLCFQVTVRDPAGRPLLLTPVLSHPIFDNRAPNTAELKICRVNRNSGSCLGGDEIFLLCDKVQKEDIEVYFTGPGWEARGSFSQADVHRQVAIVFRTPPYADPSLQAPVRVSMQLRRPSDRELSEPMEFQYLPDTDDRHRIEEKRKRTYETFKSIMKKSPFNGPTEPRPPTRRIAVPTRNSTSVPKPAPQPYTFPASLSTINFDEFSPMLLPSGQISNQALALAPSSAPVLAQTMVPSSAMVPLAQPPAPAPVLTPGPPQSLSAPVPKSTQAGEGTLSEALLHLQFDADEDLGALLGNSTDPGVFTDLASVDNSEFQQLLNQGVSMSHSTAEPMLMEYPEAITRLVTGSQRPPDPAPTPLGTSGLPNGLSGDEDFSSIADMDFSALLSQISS

[4] = target: T3, Inhibitor of nuclear factor kappa-B kinase subunit beta (Mus musculus) (UniProt O88351); experiment: Inhibition of IkappaB phosphorylation in LPS-induced mouse RAW264.7 cells preincubated with compound for 2 hrs followed by LPS stimulation and measured after 6 hrs by Western blot analysis; assay type: cell-based; conditions: dose 0.5-2 µM, time 8.0 hrs
T3 sequence (whole entry): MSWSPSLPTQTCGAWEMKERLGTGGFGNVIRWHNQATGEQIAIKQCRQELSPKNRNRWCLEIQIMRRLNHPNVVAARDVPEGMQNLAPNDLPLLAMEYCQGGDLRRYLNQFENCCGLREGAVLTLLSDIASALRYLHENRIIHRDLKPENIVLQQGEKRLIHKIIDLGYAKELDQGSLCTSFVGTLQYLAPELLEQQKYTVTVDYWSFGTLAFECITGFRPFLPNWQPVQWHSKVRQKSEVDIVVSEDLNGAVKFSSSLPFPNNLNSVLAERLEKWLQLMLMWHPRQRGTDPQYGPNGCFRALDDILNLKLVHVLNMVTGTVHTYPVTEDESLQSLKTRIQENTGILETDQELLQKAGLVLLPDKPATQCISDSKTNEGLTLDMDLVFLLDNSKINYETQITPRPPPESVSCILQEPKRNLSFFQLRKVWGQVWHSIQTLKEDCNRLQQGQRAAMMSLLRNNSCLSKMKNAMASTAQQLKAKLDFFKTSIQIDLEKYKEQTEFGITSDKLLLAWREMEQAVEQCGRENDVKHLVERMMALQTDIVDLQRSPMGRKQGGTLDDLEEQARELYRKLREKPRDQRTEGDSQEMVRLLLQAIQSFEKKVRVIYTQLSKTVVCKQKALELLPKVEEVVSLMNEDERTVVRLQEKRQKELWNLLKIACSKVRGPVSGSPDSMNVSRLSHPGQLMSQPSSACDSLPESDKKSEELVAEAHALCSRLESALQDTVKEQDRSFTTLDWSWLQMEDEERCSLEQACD

RAW264.7 = experiment: Anti inflammatory activity in LPS-induced mouse RAW264.7 cells assessed as suppression of IFN- beta levels at 0.5 to 2 uM preincubated with compound for 2 hrs followed by LPS stimulation for 6 hrs by ELISA method; assay type: functional, cell-based; conditions: dose 0.5-2 µM, time 8.0 hrs
Mus musculus [5] = experiment: (§1) Protective activity against LPS induced sepsis in BALB/c mouse model of acute liver injury assessed as reduction in necrotic hepatocytes at 1.25 to 5 mg/kg, IG administered once a day for 3 days followed by LPS stimulation for 12 hrs starting from 2 hrs post last dose by hematoxylin and eosin staining based analysis; assay type: functional, organism-based; conditions: dose 1.25-5 mg/kg, time 86.0 hrs
Mus musculus [6] = experiment: as §1, with “inflammatory cell infiltration” for “necrotic hepatocytes”; assay type: functional, organism-based; conditions: dose 1.25-5 mg/kg, time 86.0 hrs
Mus musculus [7] = experiment: Protective activity against LPS induced sepsis in BALB/c mouse model of acute liver injury assessed as reduction in ALT level in serum at 1.25 to 5 mg/kg, IG administered once a day for 3 days followed by LPS stimulation for 12 hrs starting from 2 hrs post last dose by ELISA; assay type: functional, organism-based; conditions: dose 1.25-5 mg/kg, time 86.0 hrs
Mus musculus [8] = experiment: Protective activity against LPS induced sepsis in BALB/c mouse model of acute liver injury assessed as reduction in ALP level in serum at 1.25 to 5 mg/kg, IG administered once a day for 3 days followed by LPS stimulation for 12 hrs starting from 2 hrs post last dose by ELISA; assay type: functional, organism-based; conditions: dose 1.25-5 mg/kg, time 86.0 hrs
Mus musculus [9] = experiment: Antiinflammatory activity in BALB/c mouse model of LPS induced sepsis assessed as inhibition of IFN-beta production at 1.25 to 5 mg/kg, IG administered once a day for 3 days followed by LPS stimulation for 12 hrs starting from 2 hrs post last dose by qRT-PCR analysis; assay type: functional, organism-based; conditions: dose 1.25-5 mg/kg, time 86.0 hrs
[10] = target: T1, Stimulator of interferon genes protein (Mus musculus); experiment: In vivo inhibition of STING in BALB/c mouse model of LPS induced sepsis assessed as inhibition of upregulation of phosphorylated IkappaB protein expression at 1.25 to 5 mg/kg, IG administered once a day for 3 days followed by LPS stimulation for 12 hrs starting from 2 hrs post last dose by Western blot analysis; assay type: functional, organism-based; conditions: dose 1.25-5 mg/kg, time 86.0 hrs
[11] = AUC(0 to t) in Sprague-Dawley rat administered intragastrically; assay type: ADME; set-up: route ig; conditions: in vivo, po
Mus musculus [12] = experiment: as §1, with “improvement” for “reduction”, “congested hepatic sinusoids” for “necrotic hepatocytes”; assay type: functional, organism-based; conditions: dose 1.25-5 mg/kg, time 86.0 hrs

C=CCONC(=O)CCSSCCC(=O)O[C@@H]1CC[C@@]2(C)[C@@H](CC[C@@]3(C)[C@H]2[C@H](O)C[C@H]2/C(=C(\CCC=C(C)C)C(=O)OCc4ccccc4)[C@@H](OC(C)=O)C[C@@]23C)[C@@H]1C
Activity [1]: Active | inhibition [2]: Dose-Dependent Effect | inhibition [3]: Dose-Dependent Effect | inhibition [4]: Dose-Dependent Effect | Activity (RAW264.7): Active | Activity (Mus musculus [5]): Active | Activity (Mus musculus [6]): Active | Activity (Mus musculus [7]): Active | Activity (Mus musculus [8]): Active | inhibition (Mus musculus [9]): Active | inhibition [10]: Active | AUC(0-t) [11]: 81.1 ng·h/mL | Activity (Mus musculus [12]): Active
